Test results taken from PubChem BioAssay AID330 (DTP/NCI, 2004).
“And” between values parts separate entries of the source, which are not always exact repeats. Identical values can stand only once. Toxic doses and inconclusive results are not listed.

Test system: P388 leukemia ip, CD2F1 mice, survival T/C
Experiment: NCI In Vivo Anticancer Drug Screen. Data for tumor model P388 Leukemia (intraperitoneal) in CD2F1 (CDF1) mice
Conditions: endpoint: median survival time, higher = longer survival
In short: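 Mice carrying the transplanted tumor received test compound or vehicle. Survival was recorded in each group, and the value is the treated-group measurement divided by that of the vehicle-treated control group.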

[1] = dose: 12.5 mg/kg/injection, schedule: Q01DX009 (ip), vehicle: saline
[2] = dose: 50.0 mg/kg/injection, schedule: Q01DX005 (ip), vehicle: saline
[3] = dose: 50.0 mg/kg/injection, schedule: Q01DX005 (ip), vehicle: saline with Tween-80
[4] = dose: 100.0 mg/kg/injection, schedule: Q01DX005 (ip), vehicle: saline with Tween-80
[5] = dose: 100.0 mg/kg/injection, schedule: Q01DX009 (ip), vehicle: saline with Tween-80
[6] = dose: 200.0 mg/kg/injection, schedule: Q01DX009 (ip), vehicle: saline with Tween-80
[7] = dose: 50.0 mg/kg/injection, schedule: Q01DX005 (ip), vehicle: Klucel (hydroxypropylcellulose) (HPC)
[8] = dose: 100.0 mg/kg/injection, schedule: Q01DX005 (ip), vehicle: Klucel (hydroxypropylcellulose) (HPC)
[9] = dose: 200.0 mg/kg/injection, schedule: Q01DX005 (ip), vehicle: Klucel (hydroxypropylcellulose) (HPC)
[10] = dose: 25.0 mg/kg/injection, schedule: Q04DX003 (ip), vehicle: saline with Tween-80
[11] = dose: 50.0 mg/kg/injection, schedule: Q01DX009 (ip), vehicle: saline with Tween-80
[12] = dose: 50.0 mg/kg/injection, schedule: Q04DX003 (ip), vehicle: saline with Tween-80
[13] = dose: 100.0 mg/kg/injection, schedule: Q04DX003 (ip), vehicle: saline with Tween-80
[14] = dose: 60.0 mg/kg/injection, schedule: Q01DX005 (ip), vehicle: saline with Tween-80
[15] = dose: 120.0 mg/kg/injection, schedule: Q01DX005 (ip), vehicle: saline with Tween-80
[16] = dose: 240.0 mg/kg/injection, schedule: Q01DX005 (ip), vehicle: saline with Tween-80
[17] = dose: 100.0 mg/kg/injection, schedule: Q04DX003 (ip), vehicle: saline
[18] = dose: 200.0 mg/kg/injection, schedule: Q04DX003 (ip), vehicle: saline
[19] = dose: 400.0 mg/kg/injection, schedule: Q04DX003 (ip), vehicle: saline
[20] = dose: 60.0 mg/kg/injection, schedule: Q01DX005 (ip), vehicle: Klucel (hydroxypropylcellulose) (HPC)
[21] = dose: 120.0 mg/kg/injection, schedule: Q01DX005 (ip), vehicle: Klucel (hydroxypropylcellulose) (HPC)
[22] = dose: 240.0 mg/kg/injection, schedule: Q01DX005 (ip), vehicle: Klucel (hydroxypropylcellulose) (HPC)
[23] = dose: 25.0 mg/kg/injection, schedule: Q01DX009 (ip), vehicle: Klucel (hydroxypropylcellulose) (HPC)
[24] = dose: 50.0 mg/kg/injection, schedule: Q01DX009 (ip), vehicle: Klucel (hydroxypropylcellulose) (HPC)
[25] = dose: 100.0 mg/kg/injection, schedule: Q01DX009 (ip), vehicle: Klucel (hydroxypropylcellulose) (HPC)
[26] = dose: 200.0 mg/kg/injection, schedule: Q01DX009 (ip), vehicle: Klucel (hydroxypropylcellulose) (HPC)

C/C=C/c1ccc(OC(C)C(=O)c2ccc3c(c2)OCO3)c(OC)c1 (stereo unspecified)
T/C (dose: 10.0 mg/kg/injection, schedule: Q01DX005 (ip), vehicle: Klucel (hydroxypropylcellulose) (HPC)): 108 % of control | T/C (dose: 20.0 mg/kg/injection, schedule: Q01DX005 (ip), vehicle: Klucel (hydroxypropylcellulose) (HPC)): 101 % of control | T/C (dose: 40.0 mg/kg/injection, schedule: Q01DX005 (ip), vehicle: Klucel (hydroxypropylcellulose) (HPC)): 101 % of control

O=P(N1CCCC1)(N1CC1)N1CC1
T/C (dose: 6.25 mg/kg/injection, schedule: Q01DX009 (ip), vehicle: saline): 109 % of control | T/C (dose: 8.3 mg/kg/injection, schedule: Q04DX003 (ip), vehicle: saline): 172 % of control | T/C [1]: 90 % of control | T/C (dose: 12.5 mg/kg/injection, schedule: Q04DX003 (ip), vehicle: saline): 209 % of control | T/C (dose: 18.7 mg/kg/injection, schedule: Q04DX003 (ip), vehicle: saline): 236 % of control

CC(C)C/C=N\N=C(N)N
T/C [2]: 100 % of control | T/C (dose: 100.0 mg/kg/injection, schedule: Q01DX005 (ip), vehicle: saline): 100 % of control

CN(C)CCCOC1(Cc2ccc(F)cc2)CCCCCC1
T/C [3]: 102 % of control | T/C [4]: 102 % of control

CCCCCCCCCC[N+]1([O-])CCCCC1
T/C (dose: 50.0 mg/kg/injection, schedule: Q01DX009 (ip), vehicle: saline): 97 % of control

O=C(Nc1ccccc1)c1ccccc1C(O)(c1ccccc1)c1ccc(Cl)cc1 (stereo unspecified)
T/C [5]: 95 % of control | T/C [6]: 90 % of control | T/C (dose: 400.0 mg/kg/injection, schedule: Q01DX009 (ip), vehicle: saline with Tween-80): 90 % of control

CC(/C=N\NC(=S)SCc1ccccc1)=N/NC(N)=S
T/C (dose: 100.0 mg/kg/injection, schedule: Q01DX001 (ip), vehicle: saline): 106 % of control | T/C (dose: 200.0 mg/kg/injection, schedule: Q01DX001 (ip), vehicle: saline): 106 % of control | T/C (dose: 400.0 mg/kg/injection, schedule: Q01DX001 (ip), vehicle: saline): 103 % of control

CC1(C2(C)CC2(Br)Br)CC1(Br)Br (stereo unspecified)
T/C [7]: 101 % of control | T/C [8]: 102 % of control | T/C [9]: 114 % of control

CC1(C)OC2C(COC(=O)Oc3ccccc3)OC(n3cnc4c(=S)nc[nH]c43)C2O1 (stereo unspecified)
T/C (dose: 25.0 mg/kg/injection, schedule: Q01DX009 (ip), vehicle: saline with Tween-80): 95 % of control | T/C [10]: 105 % of control | T/C [11]: 95 % of control | T/C [12]: 110 % of control | T/C [5]: 95 % of control | T/C [13]: 100 % of control

CCC1=[N+](C)C(C)(C)CC(C)O1 (stereo unspecified)
T/C (dose: 12.5 mg/kg/injection, schedule: Q04DX003 (ip), vehicle: saline with Tween-80): 100 % of control | T/C [10]: 100 % of control | T/C [12]: 95 % of control

COC(=O)c1nc2nnc(N)n2c(-c2ccc(Cl)cc2)c1C
T/C [14]: 100 % of control | T/C [15]: 101 % of control | T/C [16]: 96 % of control

CCCNC(=S)N/N=C\C(C)=N\Nc1ccc(Cl)cc1
T/C [17]: 95 % of control | T/C [18]: 96 % of control | T/C [19]: 97 % of control

CCOc1c(N=Nc2ccc(OC)cc2)c(C)nn1C(=S)S
T/C [20]: 115 % of control | T/C [21]: 112 % of control | T/C [22]: 100 % of control

COc1cccc(/C=C\C(=O)c2ccccc(=O)c2O)c1OC
T/C (dose: 25.0 mg/kg/injection, schedule: Q01DX005 (ip), vehicle: Klucel (hydroxypropylcellulose) (HPC)): 106 % of control | T/C [7]: 101 % of control | T/C [8]: 114 % of control | T/C [9]: 107 % of control

CC(=O)/C=C(\c1ccccc1)c1c(O)c2ccccc2oc1=O
T/C [11]: 89 % of control | T/C [5]: 99 % of control | T/C [6]: 114 % of control

CN(C)C1=Nc2ccc(Cl)cc2C(c2ccccc2)=NC1O (stereo unspecified)
T/C [20]: 95 % of control | T/C [21]: 98 % of control | T/C [22]: 100 % of control

CCOC(=O)N1C=CC(CC(=O)N(CC)CC)C=C1 (tested in a mixture with another compound)
T/C (dose: 60.0 mg/kg/injection, schedule: Q01DX005 (ip), vehicle: saline): 102 % of control | T/C (dose: 120.0 mg/kg/injection, schedule: Q01DX005 (ip), vehicle: saline): 96 % of control | T/C (dose: 240.0 mg/kg/injection, schedule: Q01DX005 (ip), vehicle: saline): 108 % of control

O=C1CCCCCCCCCCCCCCCO1
T/C (dose: 6.25 mg/kg/injection, schedule: Q01DX009 (ip), vehicle: Klucel (hydroxypropylcellulose) (HPC)): 103 % of control | T/C (dose: 12.5 mg/kg/injection, schedule: Q01DX009 (ip), vehicle: Klucel (hydroxypropylcellulose) (HPC)): 98 % of control and 115 % of control | T/C [23]: 104 % of control and 97 % of control | T/C [24]: 100 % of control and 120 % of control and 91 % of control | T/C [25]: 109 % of control | T/C [26]: 111 % of control | T/C (dose: 400.0 mg/kg/injection, schedule: Q01DX009 (ip), vehicle: Klucel (hydroxypropylcellulose) (HPC)): 109 % of control

CCOc1cc2c(cc1C(C)(C)c1ccccc1)OCO2
T/C [3]: 99 % of control | T/C [4]: 92 % of control | T/C (dose: 200.0 mg/kg/injection, schedule: Q01DX005 (ip), vehicle: saline with Tween-80): 96 % of control

COc1ccc(C(Br)C(C)Br)cc1 (stereo unspecified)
T/C [11]: 104 % of control | T/C [5]: 90 % of control | T/C [6]: 95 % of control

Cc1ccc(N2C(=O)C(C)SC23C(=O)Nc2ccc(Cl)cc23)cc1 (stereo unspecified)
T/C [14]: 91 % of control | T/C [15]: 96 % of control | T/C [16]: 100 % of control

CCOC(=O)CC/C(=C\NC(=O)c1ccccc1)NC(=O)c1ccccc1
T/C [14]: 96 % of control | T/C [15]: 88 % of control | T/C [16]: 90 % of control

O=c1sc2ncccc2n1-c1ccc([N+](=O)[O-])cn1
T/C [17]: 103 % of control | T/C [18]: 86 % of control | T/C [19]: 89 % of control

COc1ccc2c(c1)sc1nc(Oc3ccccc3)nc(=O)n12
T/C [24]: 105 % of control | T/C [25]: 108 % of control | T/C [26]: 100 % of control

Brc1ccc(-c2ccc3nnnn3n2)s1
T/C [7]: 91 % of control | T/C [8]: 95 % of control | T/C [9]: 87 % of control

OC(CC1CC2(CCN1)OCCO2)c1ccccc1 (stereo unspecified)
T/C (dose: 12.5 mg/kg/injection, schedule: Q01DX005 (ip), vehicle: saline): 105 % of control | T/C (dose: 25.0 mg/kg/injection, schedule: Q01DX005 (ip), vehicle: saline): 105 % of control | T/C [2]: 108 % of control

NNC(=O)c1ccc(N)cc1
T/C [11]: 100 % of control | T/C [12]: 104 % of control | T/C [5]: 100 % of control | T/C [13]: 104 % of control | T/C [6]: 100 % of control

O=C(O)[C@@H]1[C@H]2C[C@H]3c4[nH]c5ccccc5c4CCN3C[C@@H]2CC[C@@H]1O
T/C [23]: 87 % of control | T/C [24]: 88 % of control | T/C [25]: 100 % of control | T/C [26]: 101 % of control

CC1(C)N=C(N)N=C(N)N1c1ccc(Cl)c(C(F)(F)F)c1
T/C (dose: 3.12 mg/kg/injection, schedule: Q01DX009 (ip), vehicle: saline): 108 % of control | T/C [1]: 124 % of control | T/C (dose: 12.5 mg/kg/injection, schedule: Q01DX009 (ip), vehicle: suspension in saline): 155 % of control | T/C (dose: 25.0 mg/kg/injection, schedule: Q01DX009 (ip), vehicle: suspension in saline): 172 % of control

COC(=O)Nc1nc2ccc(Br)cc2[nH]1
T/C (dose: 200.0 mg/kg/injection, schedule: Q04DX003 (oral), vehicle: saline with Tween-80): 115 % of control | T/C (dose: 400.0 mg/kg/injection, schedule: Q04DX003 (oral), vehicle: saline with Tween-80): 107 % of control | T/C (dose: 800.0 mg/kg/injection, schedule: Q04DX003 (oral), vehicle: saline with Tween-80): 104 % of control | T/C (dose: 1600.0 mg/kg/injection, schedule: Q04DX003 (oral), vehicle: saline with Tween-80): 120 % of control
